Source: US12410124B2 (priority 2019, dated 2025)
Read-outs that look alike come from different tables or passages of the source.

System: fetal rat midbrain neurons
Assay: Survival rate of primary midbrain neurons induced by MPP+ (CCK-8)
Format: cell-based
Settings: for viability at 5 µM / viability at 10 µM / viability at 20 µM: Rattus norvegicus, Neuron, read-out: Survival rate (%); for survival rate compared with the styryl sulfone prototype compounds: no concentration stated
Excerpt: The main pathological feature of Parkinson's disease (PD) lies in the degeneration and loss of dopaminergic neuron in the substantia nigra-striatum of the midbrain. 1-Methyl-4-phenylpyridinium (MPP+) has a high affinity to dopamine carriers and a selective toxicity on dopaminergic neurons. Thus, MPP+ is one of the most ideal classic neurotoxins for establishing PD cell models. The primary cell culture of fetal rat midbrain is often used to establish PD cell models in recent years. Although it is more cumbersome and has higher technical requirements than cell line culture, it is closer to the pathological characteristics of PD. Thus, a PD cell model is established using neurons from the primary cell culture of fetal rat midbrain under MPP+ induction, to evaluate the protective effect of target compounds on the model neurons.
The midbrain was separated from a fetal rat of a 15-day-pregnant SD rat and cut into pieces, then subjected to trypsin digestion, pipetting, screen filtration, and resuspension steps, and inoculated in a 24-well cell culture plate pre-coated with poly-D-lysine. 12 hours after culture, cytarabine was added to inhibit the growth of glial cells. On the 5th day of neuron growth, the toxin MPP+ can be added to make a PD cell model. When detecting the activity of a target compound, the target compound was pre-incubated with midbrain neurons for 3 h, then MPP+ was added, and after 48 h co-incubation the neuronal viability was detected by CCK-8 method and the neuronal survival rate was calculated to evaluate the inhibitory activity of the target compound on the midbrain neuronal PD damage. The experiment included blank control group, MPP+ model group, positive control group (caffeic acid phenethyl ester, CAPE), prototype control group (styryl sulfone compounds 3B, 3C, 3D, and 3G), and target compound group (prepared according to Examples 1-22 in the invention).

[1] = 5 μM, 3 h pre-incubation, 48 h with MPP+
[2] = 10 μM, 3 h pre-incubation, 48 h with MPP+
[3] = 20 μM, 3 h pre-incubation, 48 h with MPP+

Compound | viability at 5 µM [1] [%] | viability at 10 µM [2] [%] | viability at 20 µM [3] [%] | viability at 5 µM (48 h) [%] | viability at 10 µM (48 h) [%] | viability at 20 µM (48 h) [%] | other results
CC(C)(C)c1ccc(CS(=O)(=O)/C=C/c2ccc(O)c(O)c2)cc1 [Compound 3G, (E)-4-{2-[(4-t-butylphenyl)mesyl]ethenyl}benzene-1,2-diol, reference compound] | 51.4 ± 3.54 | 68.4 ± 1.89 | 71.2 ± 3.75 |  |  |  | 
CCN(CC)C(=O)Oc1ccc(/C=C/S(=O)(=O)CCCc2ccccc2)cc1OC(=O)N(CC)CC [Compound C1-1, (E)-4-[2-(3-phenylpropylsulfonyl)ethenyl]-1,2-phenylenebis(diethylcarbamate)] | 69.5 ± 3.89 | 82.2 ± 3.07 | 90.3 ± 2.17 |  |  |  | survival rate compared with the styryl sulfone prototype compounds: significantly increased
O=C(/C=C/c1ccc(O)c(O)c1)OCCc1ccccc1 [Positive control group, caffeic acid phenethyl ester, reference compound] | 55 ± 3.78 | 67.1 ± 2.98 | 82.6 ± 2.13 |  |  |  | 
COc1cc(/C=C/S(=O)(=O)Cc2cc(OC)c(OC)c(OC)c2)ccc1OC(=O)N(c1ccccc1)c1ccccc1 [Compound K3-3, (E)-2-methoxy-4-{2-[(3,4,5-trimethoxyphenyl)mesyl]ethenyl}-phenyl-N,N-diphenylcarbamate] | 62.5 ± 3.58 | 75.5 ± 2.37 | 88.5 ± 1.73 |  |  |  | 
CCN(CC)C(=O)Oc1ccc(/C=C/S(=O)(=O)Cc2ccc(Cl)cc2)cc1OC(=O)N(CC)CC [Compound D1-1, (E)-4-{2-[(4-chlorophenyl)mesyl]ethenyl}-1,2-phenylenebis(diethylcarbamate)] | 80.3 ± 2.67 | 94.6 ± 3.76 | 98 ± 1.32 |  |  |  | survival rate compared with the styryl sulfone prototype compounds: significantly increased
Cc1ccc(N2CCN(C(=O)Oc3ccc(/C=C/S(=O)(=O)CCCC(c4ccc(OC(=O)CN(C)C)cc4)N(C)C)cc3OC(=O)N(C)c3ccccc3)CC2)cc1 (stereo not shown) [Compound P1-1, (E)-4-{2-[4-(dimethylamino)-4-(4-(N,N-dimethylglycyloxy)phenyl)butylsulfonyl]ethenyl}-2-(N-methyl-N-phenylcarbamoyloxy)phenyl-4-(p-methylphenyl)piperazine-1-carboxylate] |  |  |  | 75.3 ± 3.12 | 86.6 ± 2.39 | 92.2 ± 3.05 | 
CCN(CC)C(=O)Oc1ccc(/C=C/S(=O)(=O)Cc2ccc(C(F)(F)F)cc2)cc1OC(=O)N(CC)CC [Compound B1-1, (E)-4-{2-[(4-trifluoromethylphenyl)mesyl]ethenyl}-1,2-phenylenebis(diethylcarbamate)] | 78.5 ± 4.12 | 89.7 ± 2.89 | 93.8 ± 1.59 |  |  |  | survival rate compared with the styryl sulfone prototype compounds: significantly increased
COc1ccc(CC(=O)Oc2ccc(/C(C)=C/S(=O)(=O)/C=C/c3ccc(OC(=O)N(C)C)c(O[Si](C)(C)CCl)c3)cc2)cc1 [Compound P1-7, 4-{(E)-1-[(E)-3-(chloromethyldimethylsiloxy)-4-(N,N-dimethylcarbamoyloxy)styrylsulfonyl]prop-1-en-2-yl}phenyl-2-(4-methoxyphenyl) acetate] |  |  |  | 79.2 ± 3.72 | 86.6 ± 2.93 | 91.2 ± 2.08 | 
(E)-2-[(methylamino)methoxy]-4-{2-[1-(4′-nitro-[1,1′-biphenyl]-4-yl)ethylsulfonyl]ethenyl}phenylcarbamate [Compound M1-3] |  |  |  |  |  |  | Survival rate (%) [1]: 76.51 ± 4.82%; Survival rate (%) [2]: 85.29 ± 2.97%; Survival rate (%) [3]: 93.26 ± 2.26%
O=S(=O)(/C=C/c1ccc(O)c(O)c1)Cc1ccc(C(F)(F)F)cc1 [Compound 3B, (E)-4-{2-[(4-trifluoromethylphenyl)mesyl]ethenyl}benzene-1,2-diol, reference compound] | 65.9 ± 1.47 | 76.4 ± 6.54 | 84.9 ± 2.65 |  |  |  | 
CCN(C)C(=O)Oc1ccc(/C=C/S(=O)(=O)CC(c2ccc(-c3ccc(OC)c(OC)c3)cc2)[N+](=O)[O-])cc1OC(=O)N(C)CC (stereo not shown) [Compound M1-1, (E)-4-{2-[2-(3′,4′-dimethoxy-[1,1′-biphenyl]-4-yl)-2-nitroethylsulfonyl]ethenyl}-1,2-phenylenebis(N-ethyl-N-methylcarbamate)] |  |  |  | 82.4 ± 2.54 | 89.9 ± 3.67 | 95.1 ± 1.94 | 
CC(C)N(c1ccc(CCS(=O)(=O)/C=C/c2ccc(OC(=O)N(C)c3ccc(I)cc3)c(OCCOCc3ccccc3)c2)cc1)C(C)C [Compound A1-3, (E)-2-(2-benzyloxyethoxy)-4-{2-[4-(N,N-diisopropylamino)phenylethylsulfonyl]ethenyl}phenyl-N-(4-iodophenyl)-N-methylcarbamate] |  |  |  | 74.3 ± 3.75 | 89.7 ± 1.95 | 94.1 ± 1.87 | 
COc1ccc(CC(=O)Oc2ccc(C(N)CS(=O)(=O)/C=C/c3ccc(OC(C)(C)C)c(OC(=O)N(C)c4ccccc4)c3)cc2)cc1 (stereo not shown) [Compound P1-3, (E)-4-{1-amino-2-[4-t-butoxy-3-(N-methyl-N-phenylcarbamoyloxy)styrylsulfonyl]ethyl}phenyl-2-(4-methoxyphenyl)acetate] |  |  |  | 71 ± 3.56 | 85.2 ± 2.94 | 93.7 ± 3.08 | 
O=S(=O)(/C=C/c1ccc(O)c(O)c1)Cc1ccc(Cl)cc1 [Compound 3D, (E)-4-{2-[(4-chlorophenyl)mesyl]ethenyl}benzene-1,2-diol, reference compound] | 69.5 ± 5.21 | 84.1 ± 1.87 | 91.5 ± 2.32 |  |  |  | 
CCOC(CS(=O)(=O)/C=C/c1ccc(OC(C)=O)c(OC(=O)Nc2ccc(NC)cc2)c1)C(OCC)c1ccc(OCc2ccccc2)c(O)c1 (stereo not shown) [Compound H2-4, (E)-4-{2-[3-(4-benzyloxy-3-hydroxyphenyl)-2,3-diethoxypropyl]sulfonylethenyl}-2-[N-(4-methylaminophenyl)carbamoyloxy]phenyl acetate] | 69 ± 4.31 | 81.5 ± 3.24 | 89.4 ± 1.65 |  |  |  | 
COCCN(C)C(=O)Oc1cc(/C=C/S(=O)(=O)CCc2cccc(-c3ccc(C)o3)c2)ccc1OC(C)=O [Compound J1-4, (E)-2-[N-(2-methoxyethyl)-N-methylcarbamoyloxy]-4-{2-[3-(5-methylfur-2-yl)phenylethylsulfonyl]ethenyl}phenyl acetate] |  |  |  | 75.2 ± 3.29 | 84.8 ± 2.27 | 90.3 ± 2.6 | 
CC(=O)Oc1ccc(/C=C/S(=O)(=O)Cc2c(F)c(F)c(F)c(F)c2F)cc1OC(=O)NC(=O)c1ccc([N+](=O)[O-])c(C)c1 [Compound D5-4, (E)-2-[N-(3-methyl-4-nitrobenzoyl)carbamoyloxy]-4-{2-[(perfluorophenyl)mesyl]ethenyl}phenyl acetate] | 60.5 ± 3.19 | 73.2 ± 4.53 | 87.5 ± 2.16 |  |  |  | 
Cc1ccc(S(=O)(=O)Oc2ccc(CS(=O)(=O)/C=C/c3ccc(OS(=O)(=O)c4ccc(C)cc4)c(OC(=O)N(C)S(=O)(=O)c4ccc(C)cc4)c3)cc2)cc1 [Compound S6-6, (E)-2-(N-methyl-N-p-tosylcarbamoyloxy)-4-{2-[(4-p-tosyloxyphenyl)mesyl]ethenyl}phenyl p-toluenesulfonate] |  |  |  | 72 ± 2.47 | 83.2 ± 4.07 | 91.7 ± 3.18 | 
CN(C)c1ccc(CC(=O)Oc2cc(/C=C/S(=O)(=O)C(Br)c3ccc(Cc4ccc(N(C)C)cc4)cc3)ccc2OC(=O)N2CCCC2C(F)(F)F)cc1 (stereo not shown) [Compound M1-5] | 68.2 ± 4.31 | 78.2 ± 3.76 | 86.9 ± 3.08 |  |  |  | 
CCN(CC)C(=O)Oc1ccc(/C=C/S(=O)(=O)Cc2ccc(C(C)(C)C)cc2)cc1OC(=O)N(CC)CC [Compound G1-1, (E)-4-{2-[(4-t-butylphenyl)mesyl]ethenyl}-1,2-phenylenebis(diethylcarbamate)] | 78.5 ± 3.59 | 85.9 ± 2.67 | 91.4 ± 1.59 |  |  |  | survival rate compared with the styryl sulfone prototype compounds: significantly increased
O=C(NC(=O)C(F)(F)F)Oc1ccc(/C=C/S(=O)(=O)C(F)(F)c2ccc(Oc3ccccn3)cc2)cc1OC(=O)C(F)(F)C(F)(F)F [Compound L1-4, (E)-5-{2-[(4-[pyridin-2-yl-oxy]phenyl)difluoromethylsulfonyl]ethenyl}-2-[N-(2,2,2-trifluoroacetyl)carbamoyloxy]phenyl-2,2,3,3,3-pentafluoropropionate] | 67.5 ± 3.52 | 75.4 ± 2.59 | 86.2 ± 1.86 |  |  |  | 
CC[Si](CC)(Oc1ccc(C(Cl)S(=O)(=O)/C=C/c2ccc(OC(=O)N3CC(C)OC(C)C3)c(OC(=O)c3cccc(Cl)c3OC)c2)cc1)c1ccccc1 (stereo not shown) [Compound R1-5, (E)-4-{2-[4-(diethylphenylsiloxy)phenylchloromesyl]ethenyl}-2-(3-chloro-2-methoxybenzoyloxy)phenyl-2,6-dimethylmorpholine-4-carboxylate] | 72.3 ± 2.94 | 82.5 ± 2.83 | 90.2 ± 1.76 |  |  |  | 
